Test system: hNCC(V231M)
Assay: 125I- uptake assay, hNCC(V231M) variant
Format: cell-based, human
Conditions: V231M polymorphism
Experimental: HEK293S cell lines, cultured in 293 Freestyle medium (Life Technologies; plus 10% fetal bovine serum), stably expressing hNCC and its variants were generated following published protocols. Cells were transfected using Lipofectamine 3000 (Invitrogen) with a pSBbi-RP-based plasmid containing hNCC or its variants and the SB100X vector. Puromycin (2 μg/mL; Gemini Bio-Products) was used for selection of stable cell lines.
To prepare for the uptake experiment, cells were plated at 0.5 × 10^6 cells/well in 24-well plates one day in advance. To activate NCC, cells were treated with a chloride-free hypotonic solution composed of 67.5 mM sodium-, 2.5 mM potassium-, 0.25 mM magnesium-, and 0.25 mM calcium-gluconate, as well as 7.5 mM HEPES pH 7.4 (buffered using Tris) at 37 °C for 10 min[72]. After the activation step, the experiments were carried out at room temperature. Ten minutes before the start of ^125I^− uptake, 70 μM Bumetanide (Thermo Scientific Chemicals) and 100 μM 4,4′-diisothiocyanatostilbene-2,2′-disulfonic acid (DIDS; Sigma) were added to suppress background iodide uptake activity. Indicated thiazide diuretics were also added to the indicated concentrations 10 min before the start of ^125I^− uptake. The original buffer was switched to an uptake buffer composed of 135 mM Na-gluconate, 5 mM K-gluconate, 1 mM Mg-gluconate, 1 mM Ca-gluconate, 70 μM bumetanide, 100 μM DIDS, 1 mM NaI, 0.25 μCi/ml Na^125I (American Radiolabeled Chemicals, Inc.), and 15 mM HEPES pH 7.4 (buffered using Tris), in the presence or absence of thiazide diuretics to initiate ^125I^− uptake. The ^125I^− uptake process lasted 1 h and was stopped by two rapid washes using ice-cold 110 mM MgCl2. Cells lysed using 1% sodium dodecyl sulfate (SDS) were analyzed by scintillation counting.
To calculate the fold change of the half-maximal inhibitory concentration (IC50) between hNCC(WT) and different hNCC variants, individual dose-response curves were normalized first using the smallest mean and the value of the lowest concentration as 0% and 100%, respectively. The normalized data were then fitted using the “EC50 shift” nonlinear regression in GraphPad Prism 10 with the shared EC50Control assigned to be the IC50 of hNCC(WT). The following constraints were used in the EC50 shift analysis. The EC50Control was set to be shared across all curves under analysis and constrained to be greater than 0. The EC50Ratio was constrained to be greater than 0. The bottom, top, and HillSlope were constrained to be 0, 100, and −1, respectively. For Fig. 1f, g and Supplementary Fig. 2d, GraphPad Prism 10 was used to perform curve fitting and IC50 calculation for normalized data using y = 100/(1 + (x/IC50)).

NS(=O)(=O)c1cc2c(cc1Cl)NCNS2(=O)=O [hydrochlorothiazide]
sensitivity relative to hNCC(WT) (fold lower): nearly as sensitive as the wild-type

From paper PMC12365235, “Molecular mechanisms of thiazide-like diuretics-mediated inhibition of the human Na-Cl cotransporter” (Nature Communications, 2025)
